pIC50: −log10 of the molar value. Structures can show the parent of a compound that is named as a salt.
How the values were obtained:
[1] = test system: gastric cancer cell line Hs746T; assay: Cancer cell proliferation inhibitory test (SRB or MTS assay, 72 hours); format: cell-based; conditions: Homo sapiens, cancer cell (Hs746T) proliferation inhibition, culturing with compound for 72 hours
Method: The drug used in the test was diluted to a desired concentration as a test medium, and the final concentration of dimethyl sulfoxide was 0.5% or less.
All the cancer cell lines used in the test originated from the human body, and gastric cancer cell lines Hs746T and MKN-45 were used.
5×10^3 cells of Hs746T were dispensed to each well of the 96-well flat bottom micro-plate. MKN-45 was dispensed at 1×10^4 cells. The cells were cultured for 24 hours, so that the cells adhered to the bottom, and then the culture liquid was removed. The culture liquid containing each of the compounds of the present invention was added, followed by culturing for 72 hours. After the culturing with the compound was completed, the cytotoxicity was measured using protein stain reagent SRB or MTS assay.
Specifically, after the culturing with the compound of the present invention was completed, the cultured liquid was removed. Each well was treated with a cool TCA solution, and allowed to stand at 4° C. for 1 hour to fix cells. The TCA solution was removed, followed by drying at room temperature, and then a stain solution containing 0.4% SRB dissolved in 1% acetic acid solution was added, and then the mixture was allowed to stand for 30 minutes to stain cells. […] The absorbance of each well was measured at a wavelength range of 520 nm using an Eliza reader (micro-plate reader).
The drug cytotoxicity was measured from the OD values for the well added without the drug (C), each well added with the drug (T), and the well initially added with the drug (Tz): [(T−Tz)/(C−Tz)]×100 for […]; or [(T−Tz)/(Tz)]×100 for Tz>T.
The cancer cell inhibitory activity measurement using MTS assay was conducted as follows. Specifically, after the culturing with the compound of the present invention was completed, the PMS solution and MTS solution constituting the CellTiter 96® AQueous Non-Radioactive Cell Proliferation Assay product from Promega Co. were mixed, and 20 μL was put into each well. After the cells were placed in an incubator for 4 hours, and then taken out and allowed to stand at room temperature for 10 minutes.

c-Met enzyme = c-Met enzyme (Homo sapiens (Human), UniProt P08581); assay: c-Met kinase inhibitory activity (DELFIA time-resolved fluorescence); format: biochemical; conditions: c-Met kinase activity reduced to 50%
Method: The c-Met kinase inhibitory activity was analyzed using dissociation enhanced lanthanide fluoro-immunoassay (DELFIA, Perkin Elmer), which is a kind of time-resolved fluorescence (TRF). […] of the compound prepared in the present invention, as a test compound, was put in a Greiner 96-well V-shaped bottom plate, and a tyrosin kinase buffer ([…]) mixed with a c-Met enzyme was added thereto, and then the enzyme and the test compound were stirred for 15 minutes, followed by culturing. An ATP solution ([…]) was added thereto to proceed with a kinase reaction at room temperature for 30 minutes, and then a 50 mM […] solution (EDTA, […]) was added to stop the reaction. After that, the reaction mixture was transferred to a plate coated with Streptavidin, followed by culturing under shaking. After 2 hours, the cultured material was washed three times with a PBS-T buffer (PBS 0.05% Tween 20).
The europium-labeled anti-phosphotyrosine antibody was diluted to 1:[…] of the diluent was added per well, followed by culturing under shaking. After 1 hour, the cultured material was washed three times with a PBS-T buffer (PBS 0.05% Tween 20).

Sequence of c-Met enzyme (P08581 25-1390): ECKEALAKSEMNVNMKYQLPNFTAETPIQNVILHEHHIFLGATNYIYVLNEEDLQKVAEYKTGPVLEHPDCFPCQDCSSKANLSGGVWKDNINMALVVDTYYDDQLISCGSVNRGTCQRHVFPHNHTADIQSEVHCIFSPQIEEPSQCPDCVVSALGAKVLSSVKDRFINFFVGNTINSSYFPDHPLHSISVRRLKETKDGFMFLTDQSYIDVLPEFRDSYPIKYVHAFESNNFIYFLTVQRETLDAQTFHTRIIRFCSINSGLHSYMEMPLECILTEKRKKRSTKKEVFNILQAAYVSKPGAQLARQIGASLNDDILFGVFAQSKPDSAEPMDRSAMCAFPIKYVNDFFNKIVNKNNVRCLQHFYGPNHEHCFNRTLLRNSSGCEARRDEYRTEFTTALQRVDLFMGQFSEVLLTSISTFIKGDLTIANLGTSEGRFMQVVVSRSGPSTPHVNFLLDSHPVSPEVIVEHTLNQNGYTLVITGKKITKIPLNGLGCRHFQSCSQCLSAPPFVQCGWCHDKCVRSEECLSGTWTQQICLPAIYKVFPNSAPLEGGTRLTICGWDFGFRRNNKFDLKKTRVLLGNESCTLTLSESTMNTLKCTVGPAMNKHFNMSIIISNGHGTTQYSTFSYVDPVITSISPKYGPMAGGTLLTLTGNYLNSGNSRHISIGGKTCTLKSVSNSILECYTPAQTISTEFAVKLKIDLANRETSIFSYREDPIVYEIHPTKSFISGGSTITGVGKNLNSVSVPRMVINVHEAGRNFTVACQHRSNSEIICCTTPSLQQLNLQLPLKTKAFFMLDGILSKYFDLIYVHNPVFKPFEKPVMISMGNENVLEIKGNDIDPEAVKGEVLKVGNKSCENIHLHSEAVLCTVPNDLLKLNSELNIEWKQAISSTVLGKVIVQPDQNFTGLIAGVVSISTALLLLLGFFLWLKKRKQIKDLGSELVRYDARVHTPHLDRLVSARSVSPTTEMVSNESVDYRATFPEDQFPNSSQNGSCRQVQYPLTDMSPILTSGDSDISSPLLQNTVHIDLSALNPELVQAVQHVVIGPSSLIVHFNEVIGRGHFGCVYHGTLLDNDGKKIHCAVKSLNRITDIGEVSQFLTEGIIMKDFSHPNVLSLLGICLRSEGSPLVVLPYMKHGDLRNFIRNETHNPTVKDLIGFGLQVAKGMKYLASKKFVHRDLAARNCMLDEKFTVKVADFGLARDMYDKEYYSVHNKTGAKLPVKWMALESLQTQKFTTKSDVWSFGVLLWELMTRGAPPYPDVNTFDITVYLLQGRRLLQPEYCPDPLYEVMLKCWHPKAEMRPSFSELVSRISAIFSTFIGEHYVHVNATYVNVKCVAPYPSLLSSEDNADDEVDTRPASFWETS

## CN1CC=C(c2cnc(N3CCO[C@H](Cn4nnc5ncc(-c6cnn(C)c6)nc54)C3)nc2)CC1 [Chemical formula 10, (S)-4-(5-(1-methyl-1,2,3,6-tetrahydropyridin-4-yl)pyrimidin-2-yl)-2-((6-(1-methyl-1H-pyrazol-4-yl)-1H-[1,2,3]triazolo[4,5-b]pyrazin-1-yl)methyl)morpholine]
[1]
  pIC50: 8.96
c-Met enzyme
  pIC50: 8.40

## Cn1cc(-c2cnc3nnn(C[C@@H]4CN(c5ncc(C6CCN(CCO)CC6)cn5)CCO4)c3n2)cn1 [Chemical formula 21, (S)-2-(4-(2-(2-((6-(1-methyl-1H-pyrazol-4-yl)-1H-[1,2,3]triazolo[4,5-b]pyrazin-1-yl)methyl)morpholino)pyrimidin-5-yl)piperidin-1-yl)ethanol]
[1]
  pIC50: 8.25
c-Met enzyme
  pIC50: 8.30

## Cn1cc(-c2cnc3nnn(C[C@@H]4CN(c5ncc(C6=CCNCC6)cn5)CCO4)c3n2)cn1 [Chemical formula 9, (S)-2-((6-(1-methyl-1H-pyrazol-4-yl)-1H-[1,2,3]triazolo[4,5-b]pyrazin-1-yl)methyl)-4-(5-(1,2,3,6-tetrahydropyridin-4-yl)pyrimidin-2-yl)morpholine hydrochloride]
[1]
  pIC50: 9.02
c-Met enzyme
  pIC50: 8.52

## Cn1cc(-c2cnc3nnn(CC4CCCN(c5ncc(C6=CCN(CCO)CC6)cn5)C4)c3n2)cn1 (centres unmarked) [Chemical formula 35, 2-(4-(2-(3-((6-(1-methyl-1H-pyrazol-4-yl)-1H-[1,2,3]triazolo[4,5-b]pyrazine-1-yl)methyl)piperidin-1-yl)pyrimidin-5-yl)-5,6-dihydropyridin-1(2H)-yl)ethanol]
[1]
  pIC50: 8.70
c-Met enzyme
  pIC50: 8.52

## Cn1cc(-c2cnc3nnn(CC4CCCN(c5ncc(C6=CCNCC6)cn5)C4)c3n2)cn1 (centres unmarked) [Chemical formula 33, 6-(1-methyl-1H-pyrazol-4-yl)-1-((1-(5-(1,2,3,6-tetrahydropyridin-4-yl)pyrimidin-2-yl)piperidin-3-yl)methyl)-1H-[1,2,3]triazolo[4,5-b]pyrazinehydrochloride]
[1]
  pIC50: 8.02
c-Met enzyme
  pIC50: 8.52

## Cn1cc(-c2cnc3nnn(C[C@@H]4CN(c5ncc(C6=CCN(CCO)CC6)cn5)CCO4)c3n2)cn1 [Chemical formula 12, (S)-2-(4-(2-(2-((6-(1-methyl-1H-pyrazol-4-yl)-1H-[1,2,3]triazolo[4,5-b]pyrazin-1-yl)methyl)morpholino)pyrimidin-5-yl)-5,6-dihydropyridin-1(2H)-yl)ethanol]
[1]
  pIC50: 9.02
c-Met enzyme
  pIC50: 8.40

## N#Cc1cc(-c2cnc3nnn(C[C@@H]4CN(c5ncc(-c6cnn(CCO)c6)cn5)CCO4)c3n2)ccc1F [Chemical formula 32, (S)-2-fluoro-5-(1-((4-(5-(1-(2-hydroxyethyl)-1H-pyrazol-4-yl)pyrimidin-2-yl)morpholine-2-yl)methyl)-1H-[1,2,3]triazolo[4,5-b]pyrazin-6-yl)benzonitrile]
[1]
  pIC50: 9.85
c-Met enzyme
  pIC50: 9.00

## Cn1cc(-c2cnc3nnn(CC4CCCN(c5ncc(-c6cnn(C7CCNCC7)c6)cn5)C4)c3n2)cn1 (centres unmarked) [Chemical formula 37, 6-(1-methyl-1H-pyrazol-4-yl)-1-((1-(5-(1-(piperidin-4-yl)-1H-pyrazol-3-yl)pyrimidin-2-yl)piperidin-3-yl)methyl)-1H-[1,2,3]triazolo[4,5-b]pyrazinehydrochloride]
[1]
  pIC50: 8.89
c-Met enzyme
  pIC50: 8.70

## N#Cc1cccc(-c2cnc3nnn(C[C@@H]4CN(c5ncc(-c6cnn(CCO)c6)cn5)CCO4)c3n2)c1 [Chemical formula 31, (S)-3-(1-((4-(5-(1-(2-hydroxyethyl)-1H-pyrazol-4-yl)pyrimidin-2-yl)morpholin-2-yl)methyl)-1H-[1,2,3]triazolo[4,5-b]pyrazin-6-yl)benzonitrile]
[1]
  pIC50: 9.74
c-Met enzyme
  pIC50: 8.70

## CN1CCC(n2cc(-c3cnc(N4CCO[C@H](Cn5nnc6ncc(-c7cnn(C)c7)nc65)C4)nc3)cn2)CC1 [Chemical formula 7, (S)-2-((6-(1-methyl-1H-pyrazol-4-yl)-1H-[1,2,3]triazolo[4,5-b]pyrazin-1-yl)methyl)-4-(5-(1-(1-methylpiperidin-4-yl)-1H-pyrazol-4-yl)pyrimidin-2-yl)morpholine]
[1]
  pIC50: 9.96
c-Met enzyme
  pIC50: 8.22
